Results as given in patent publication US6835808B2, “Anti-heparin peptides” (Diagnostica-Stago, priority 2000, dated 2004).

Key:
[1] = system: UFH (unfractionated heparin, Calciparine) in plasma; assay: Anti-heparin power in a PT (Quick time) test with thromboplastin reagent, heparinized vs nonheparinized plasma; type: biochemical; details: anti-heparin agent at 5 μg/ml in thromboplastin reagent; pool of normal plasma with 0 vs 1 IU/ml UFH; delta relative clotting time
Procedure: The aim is to analyze the performance (anti-heparin power and turbidity) of anti-heparin agents incorporated into a Diagnostica Stago thromboplastin reagent.
Analysis of the anti-heparin power: This is the ability of the anti-heparin agent to make the reagent insensitive to the heparin contained in the blood sample:
The test samples are prepared from a pool of normal plasma which may or may not be overloaded with heparin (plasma heparinized with 1 IU/ml of UFH (Calciparine 25 000 IU/ml, Sanofi)).
Comment: a reagent serving as a negative control, i.e. without anti-heparin agent, is of use to verify the heparinization of the plasma.
To determine the Quick Time, the automated device (STA Diagnostica Stago—patent EP 0325874) removes 50 μl of sample plasma, which it allows to incubate at 37° C. for 240 seconds in a cupule containing a bead; it then transfers the cupule into the measuring area and adds 100 μl of thromboplastin reagent to the sample.
The clotting time was determined in the following way: At constant viscosity, the amplitude of oscillation of the bead in the cupule (oscillation maintained using an electromagnetic field) is constant. When the viscosity increases (clotting phenomenon), the amplitude of oscillation of the bead decreases.
An algorithm uses this variation in amplitude to determine the clotting time.
The anti-heparin power is calculated in the following way: determination of the delta relative time between a heparinized and nonheparinized plasma, i.e.:
[{CT(heparinized plasma)−CT(nonheparinized plasma)}/TC(nonheparinized plasma)×100]
The anti-heparin power of the compounds according to the invention is estimated to be significant when this delta time is less than 10%.

[2] = Turbidity of the thromboplastin reagent containing the anti-heparin agent (OD at 630 nm); type: physicochemical; details: anti-heparin agent at 5 μg/ml in thromboplastin-type reagent
Procedure: The turbidity should be as low as possible for an application in diagnosis, and more particularly in a thromboplastin test (PT).
This turbidity is determined by measuring the OD at 630 nm on a spectrophotometer (Uvikon 940, Kontron).
Comment: a reagent serving as a negative control, i.e. without anti-heparin agent, is of use to measure the influence of this anti-heparin agent on the turbidity of the reagent.

Row | Substance | Anti-UFH power Delta time 0/1 IU/ml (in %) [1] | Turbidity OD 630 nm [2]
1 | Pro-K3-AHA-K4-APA-K4-APA-K2 [1403P] | 7.1% | 0.205 OD
2 | Pro-K4-AHA-K4-APA-K3-APA-K3 [compound 1394] | 6.4% | 0.399 OD
3 | PGlu-K4-(AHA)2-K4-AHA-K4-AHA-K2 [1415-5] | 4.5% | 0.069 OD
4 | Pro-K4-AHA-K3-APA-K3-APA-K2 [compound 1404] | 7.6% | 0.147 OD
5 | Pro-K3-AHA-K4-APA-K4-APA-K2 [1403PK] | 8.7% | 0.283 OD
6 | Pro-K4-AHA-K4-APA-K4-APA-K2 [compound 1401] | 8.1% | 0.488 OD
7 | Hyp-K4-(AHA)2-K4-AHA-K4-AHA-K2 [1415-3] | 3.4% | 0.134 OD
8 | THC-K4-(AHA)2-K4-AHA-K4-AHA-K2 [1415-4] | 5.9% | 0.148 OD
9 | Pro-K4-AHA-K3-APA-K4-APA-K3 [1408-2] | 6.9% | 0.040 OD
10 | Pro-K4-(AHA)2-K4-AHA-K3-AHA-K2 [compound 1411] | 6.5% | 0.086 OD
11 | Pro-K4-(AHA)2-K4-AHA-K4-AHA-K2 [compound 1405] | 4.2% | 0.323 OD
12 | Thi-K4-(AHA)2-K4-AHA-K4-AHA-K2 [1415-2] | 5.7% | 0.104 OD
